Data taken from article PMC12587552, “A nitrogen-containing diphyllin derivative C156-P1 exhibited broad-spectrum antiviral activity against Flaviviridae viruses by preventing endosomal acidification” (Antimicrobial Agents and Chemotherapy, 2025).
Where two headings read alike, the source gives them in different places.

Assays:
YFV = assay: microbe, parasite or virus in culture; type: cell-based, YFV vaccine strain 17D; conditions: Yellow fever virus, read-out: EC50 against YFV
DENV-2 [1] = assay: Colocalization of DENV E protein and Rab7A, confocal microscopy; type: cell-based, DENV-2 strain 16681; conditions: A549 cells, DENV-2 MOI = 20, 50 nM, 12 h
ATP6V0A2 = ATP6V0A2 mRNA level by RT-qPCR; type: cell-based, human
HCV = assay: microbe, parasite or virus in culture; type: cell-based, hepatitis C virus genotype 2a JFH1; conditions: Hepatitis C virus, Huh-7, 72 h, read-out: EC50 against HCV
ZIKV = assay: microbe, parasite or virus in culture; type: cell-based, ZIKV strain SZ01; conditions: Zika virus, read-out: EC50 against ZIKV
[2] = tested on: endosomal acidification in A549 cells; assay: Endosomal acidification, LysoSensor DND-189 flow cytometry; type: cell-based, human
DENV-3 = assay: microbe, parasite or virus in culture; type: cell-based, DENV-3 clone DV3syn_4M; conditions: Dengue virus, read-out: EC50 against DENV-3
DENV-2 [3] = assay: Time-of-drug-addition assay; type: cell-based, DENV-2 strain 16681; conditions: A549 cells, DENV-2 MOI 2, 50 nM, 48 hpi
DENV-2, ZIKV, and JEV = assay: Viral binding and internalization assays; type: cell-based; conditions: A549 cells, MOI 2, viral RNA by RT-qPCR
DENV-4 = DENV-4 infection, immunofluorescence assay; type: cell-based; conditions: Dengue virus, read-out: EC50 against DENV-4

COc1cc2c(OCC#N)c3c(c(-c4ccc5c(c4)OCO5)c2cc1OC)C(=O)OC3 [Compound C156-P1]
EC50 (YFV; A549, 48 h): 5.54 nM | EC50 (YFV; Vero, 48 h): 3.94 nM | Colocalization between DENV E protein and Rab7A (DENV-2 [1]): significantly enhanced the colocalization between DENV E protein and Rab7A | ATP6V0A2 mRNA expression (ATP6V0A2): decrease in ATP6V0A2 mRNA expression | EC50 (HCV): 5.13 nM | EC50 (ZIKV; A549, 48 h): 1.01 nM | EC50 (ZIKV; Vero, 48 h): 0.76 nM | Endosomal acidification (FITC intensity of LysoSensor DND-189) [2]: significantly decreased the MFI of FITC in a dose-dependent manner | EC50 (DENV-3; DENV3, A549, 48 h): 4.84 nM | EC50 (DENV-3; DENV3, Vero, 48 h): 4.93 nM | Intracellular viral RNA, NS3 protein and extracellular titers, before-, during- and after-incubation groups versus DMSO (DENV-2 [3]): significantly reduced levels | Effect on internalization or binding steps of DENV-2, ZIKV, and JEV (DENV-2, ZIKV, and JEV): did not exhibit inhibitory effects | EC50 (DENV-4; DENV4, A549, 48 h): 5.31 nM | EC50 (DENV-4; DENV4, Vero, 48 h): 5.53 nM
